In patent US20220387457A1 (Qlaris Bio, Inc., priority 2020, published 2022):
Like-named read-outs stand apart in the source and are kept apart here.

Key:
[1] = Toxicokinetics after escalating intravenous doses of CKLP1 in beagles; format: in vivo, beagle dog; conditions: beagle, dog, in vivo, iv
Procedure: Two beagles (one male and one female) were intravenously injected with escalating doses of CKPL1 (0.05 mg/kg, 0.5 mg/kg, 1.5 mg/kg, 3 mg/kg, and 5 mg/kg) to assess the toxicity of CKLP1. The injection was done through the cephalic vein and CKLP1 was administered in a phosphate buffered saline solution ((0.096% sodium phosphate dibasic, 0.089% sodium dihydrogen orthophosphate monohydrate, 0.83% sodium chloride) pH 6.5±0.1 in sterile water for injection USP). The dosing schedule is shown below in Table 3.
The following parameters and endpoints were evaluated: mortality, clinical observations, body and organ weights, and food consumption. Bioanalytical samples for toxicokinetic parameters (for both CKLP1 and leveromakalim) were collected after each dose level (days 1, 3, 8, 10, and 14) at predose, 1, 3, 6, 8, and 24 hours postdose. Animals were released from the study after completion of the bioanalytical sample collection schedule.
Toxicokinetics (TK) were determined based on the individual exposures for each animal on each sampled study day (days 1, 3, 8, 10, and 14). […] Predose samples had no quantifiable exposure in any animal on any day, with the exception of the female dog on day 10. The predose concentration for the female dog on day 10 was excluded from the TK analysis in order to allow for estimation of the IV C0.

[2] = Concentration of CKLP1 and levcromakalim in ocular and systemic tissues of hound dogs; format: in vivo, hound dog; conditions: for concentration at 23 h: hound, dog, 23 hours after last dose
Procedure: After blood collection for pharmacokinetic studies, bilateral ocular treatment with CKLP1 (10 mM) continued in the hound dogs for 4-5 additional days.
For ocular tissue collection, eyes were enucleated and aqueous humor, vitreous humor, trabecular meshwork, optic nerve, ciliary body, iris, retina and cornea were isolated and stored at −80° C. While collecting tissues during necropsy, portions of heart, kidney, lung, brain, liver and skeletal muscle were immediately frozen for pharmacodynamics analysis, while the remaining tissue samples were immediately fixed in 10% neutral buffered formalin.
Immediately prior to analysis, tissues were thawed and their weight was measured. PBS was added at double the tissue volume homogenized in a rotor stator homogenizer for 30 seconds. […] Detection was accomplished using positive electrospray ionization with multiple-reaction monitoring (MRM). […] Data were acquired and analyzed using Waters MassLynx v4.1 software.

`CC1(C)Oc2ccc(C#N)cc2[C@@H](N2CCCC2=O)[C@@H]1O` [Levcromakalim, levcromakalim, reference compound] showed an AUC(0-t) ([1]; both sexes, 3 mg/kg, read-out: AUCTlast at MTD, sex-combined) of 431 ng·h/mL, a Cmax ([1]; both sexes, 3 mg/kg, read-out: Cmax at MTD, sex-combined) of 35.5 ng/mL and an AUCTlast ([1]; female, 0.5 mg/kg) of 81.3 ng·h/mL. The T1/2 ([1]; female, 0.5 mg/kg) was 10.3 h, the “AUC(0-inf)” value ([1]; female, 1.5 mg/kg) was 272 ng·h/mL and the AUCTlast ([1]; female, 1.5 mg/kg) was 241 ng·h/mL. It also gave a Cmax ([1]; female, 1.5 mg/kg) of 15.6 ng/mL, a T1/2 ([1]; female, 1.5 mg/kg) of 7.58 h and a Tmax ([1]; female, 1.5 mg/kg) of 3.00 h. The “AUC(0-inf)” value ([1]; female, 3 mg/kg) was 404 ng·h/mL, the AUCTlast ([1]; female, 3 mg/kg) was 386 ng·h/mL and the Cmax ([1]; female, 3 mg/kg) was 28.3 ng/mL. For the same molecule, the T1/2 ([1]; female, 3 mg/kg) was 5.07 h, the Tmax ([1]; female, 3 mg/kg) was 6.00 h and the AUCTlast ([1]; female, 5 mg/kg) was 1040 ng·h/mL. For the same molecule, the T1/2 ([1]; female, 5 mg/kg) was 7.82 h, the AUCTlast ([1]; male, 0.05 mg/kg) was 5.04 ng·h/mL and the T1/2 ([1]; male, 0.05 mg/kg) was 9.66 h. The AUCTlast ([1]; male, 0.5 mg/kg) was 45.5 ng·h/mL, the T1/2 ([1]; male, 0.5 mg/kg) was 6.89 h and the “AUC(0-inf)” value ([1]; male, 1.5 mg/kg) was 192 ng·h/mL. For the same molecule, the AUCTlast ([1]; male, 1.5 mg/kg) was 183 ng·h/mL, the Cmax ([1]; male, 1.5 mg/kg) was 18.0 ng/mL and the T1/2 ([1]; male, 1.5 mg/kg) was 5.27 h. The Tmax ([1]; male, 1.5 mg/kg) was 1.00 h, the “AUC(0-inf)” value ([1]; male, 3 mg/kg) was 518 ng·h/mL and the AUCTlast ([1]; male, 3 mg/kg) was 476 ng·h/mL. It also gave a Cmax ([1]; male, 3 mg/kg) of 42.7 ng/mL, a T1/2 ([1]; male, 3 mg/kg) of 6.48 h and a Tmax ([1]; male, 3 mg/kg) of 1.00 h. The AUCTlast ([1]; male, 5 mg/kg) was 741 ng·h/mL, the T1/2 ([1]; male, 5 mg/kg) was 7.67 h and the concentration at 23 h ([2]; aqueous humor, topical 10 mM CKLP1 12-13 days, two animals, read-out: concentration in aqueous humor) was 1.1 ± 1.5 ng/mL. For the same molecule, the concentration at 23 h ([2]; ciliary body, topical 10 mM CKLP1 12-13 days, two animals, read-out: concentration in ciliary body) was < 1 ng/g, the concentration at 23 h ([2]; cornea, topical 10 mM CKLP1 12-13 days, two animals, read-out: concentration in cornea) was 1.4 ± 0.3 ng/g and the concentration at 23 h ([2]; heart, topical 10 mM CKLP1 12-13 days, read-out: concentration in heart) was 0.9 ± 0.8 ng/g. The concentration at 23 h ([2]; iris, topical 10 mM CKLP1 12-13 days, two animals, read-out: concentration in iris) was < 1 ng/g, the concentration at 23 h ([2]; kidney, topical 10 mM CKLP1 12-13 days, read-out: concentration in kidney) was 0.8 ± 1.2 ng/g and the concentration at 23 h ([2]; lung, topical 10 mM CKLP1 12-13 days, read-out: concentration in lung) was 0.3 ± 0.4 ng/g. For the same molecule, the concentration at 23 h ([2]; optic nerve, topical 10 mM CKLP1 once daily 12-13 days, two animals, read-out: concentration in optic nerve) was < 1 ng/g, the concentration at 23 h ([2]; retina, topical 10 mM CKLP1 12-13 days, two animals, read-out: concentration in retina) was < 1 ng/g and the concentration at 23 h ([2]; trabecular meshwork, topical 10 mM CKLP1 12-13 days, two animals, read-out: concentration in trabecular meshwork) was 2 ± 0.5 ng/g. For the same molecule, the concentration at 23 h ([2]; vitreous humor, topical 10 mM CKLP1 12-13 days, two animals, read-out: concentration in vitreous humor) was < 1 ng/g and the concentration in urine ([2]; topical 10 mM CKLP1 12-13 days) was 3.7 ± 4.5 ng/mL.
